According to US10597388B2, “Pyridazinone herbicides” (FMC CORPORATION, priority 2014, dated 2020):

How the values were obtained:
Type in all cases: in vivo
[1] = system: barnyardgrass (Echinochloa crus-galli); assay: Test C greenhouse herbicide test, pre- and postemergence
Method in brief: (§1)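 Preemergence: seeds sown in a loam soil–sand blend and sprayed with test chemicals in a non-phytotoxic solvent mixture containing surfactant. Postemergence: plants grown in peat-based medium and treated at 2 to 18 cm (1- to 4-leaf stage). After 13 to 15 d in a greenhouse, injury was visually rated 0–100 against controls.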

[2] = system: blackgrass (Alopecurus myosuroides); assay: as above
Method in brief: as §1

corn (Zea mays) = assay: as above
Method in brief: as §1

[3] = system: crabgrass, large (large crabgrass, Digitaria sanguinalis); assay: as above
Method in brief: as §1

[4] = system: foxtail, giant (giant foxtail, Setaria faberii); assay: as above
Method in brief: as §1

[5] = system: johnsongrass (Sorghum halepense); assay: as above
Method in brief: as §1

[6] = system: lambsquarters (Chenopodium album); assay: as above
Method in brief: as §1

[7] = system: morningglory (Ipomoea coccinea); assay: as above
Method in brief: as §1

[8] = system: pigweed (Amaranthus retroflexus); assay: as above
Method in brief: as §1

[9] = system: ragweed (common ragweed, Ambrosia elatior); assay: as above
Method in brief: as §1

[10] = system: ryegrass, Italian (Italian ryegrass, Lolium multiflorum); assay: as above
Method in brief: as §1

soybean (Glycine max) = assay: as above
Method in brief: as §1

[11] = system: waterhemp (common waterhemp, Amaranthus rudis); assay: as above
Method in brief: as §1

[12] = system: wheat (winter wheat, Triticum aestivum); assay: as above
Method in brief: as §1

kochia (Kochia scoparia) = assay: Test C greenhouse herbicide test, postemergence; conditions: for Plant response rating, Kochia: Postemergence
Method in brief: (§2)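 Steps: pot plants in peat-based medium; spray postemergence at 1- to 4-leaf stage; hold in greenhouse 13 to 15 d; score visually against controls from 0 (no effect) to 100 (complete control).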

[13] = system: oat, wild (wild oat, Avena fatua); assay: Test C greenhouse herbicide test, postemergence; conditions: for Plant response rating, Oat, Wild: Postemergence
Method in brief: as §2

[14] = Postemergence, 31 g ai/ha, 0 to 100 scale (0 no effect, 100 complete control)
[15] = Postemergence, 125 g ai/ha, scale 0 to 100, 0 is no effect, 100 is complete control
[16] = Postemergence, 250 g ai/ha, scale 0 to 100, 0 no effect, 100 complete control, 13 to 15 d
[17] = Preemergence, 31 g ai/ha, scale 0 to 100, 0 is no effect, 100 is complete control
[18] = Preemergence, 62 g ai/ha, scale 0 to 100, 0 is no effect, 100 is complete control
[19] = Preemergence, 125 g ai/ha, scale 0 to 100, 0 is no effect, 100 is complete control
[20] = Preemergence, 250 g ai/ha, scale 0 to 100 (0 no effect, 100 complete control)
[21] = postemergence, 62 g ai/ha, scale 0 to 100, 0 no effect, 100 complete control
[22] = 125 g ai/ha, scale 0 to 100, 0 is no effect, 100 is complete control
[23] = 250 g ai/ha, scale 0 to 100, 0 no effect, 100 complete control, 13 to 15 d

CCOC(=O)Oc1c(C)nn(C)c(=O)c1-c1c(C)sc2c(C)cc(C)cc12 [Compound 83]
55: Plant response rating, Crabgrass, Large [3, 16]
30: Plant response rating, Barnyardgrass [1, 15] | Plant response rating, Soybean (soybean (Glycine max); [17])
90: Barnyardgrass plant response rating [1, 20] | Plant response rating, Blackgrass [2, 15] | Plant response rating, Blackgrass [2, 16] | Blackgrass plant response rating [2, 20] | Plant response rating, Foxtail, Giant [4, 16] | Plant response rating, Morningglory [7, 18] | Morningglory plant response rating [7, 21] | Plant response rating, Pigweed [8, 15] | Plant response rating, Pigweed [8, 16] | Plant response rating, Ragweed [9, 15] | Plant response rating, Ryegrass, Italian [10, 15] | Plant response rating, Ryegrass, Italian [10, 17] | Plant response rating, Ryegrass, Italian [10, 18] | Plant response rating, Ryegrass, Italian [10, 19] | Ryegrass, Italian plant response rating [10, 20] | Ryegrass, Italian plant response rating [10, 21] | Plant response rating, Waterhemp [11, 18] | Plant response rating, Oat, Wild [13, 22] | Oat, Wild plant response rating [13, 21]
95: Plant response rating, Lambsquarters [6, 19] | Plant response rating, Morningglory [7, 19] | Plant response rating, Ragweed [9, 19] | Ragweed plant response rating [9, 20] | Plant response rating, Ryegrass, Italian [10, 16] | Plant response rating, Oat, Wild [13, 23]
10: Plant response rating, Corn (corn (Zea mays); [15]) | Plant response rating, Corn (corn (Zea mays); [16]) | Corn plant response rating (corn (Zea mays); [20]) | Plant response rating, Johnsongrass [5, 16] | Plant response rating, Soybean (soybean (Glycine max); [16])
0: Plant response rating, Corn (corn (Zea mays); [17]) | Plant response rating, Corn (corn (Zea mays); [18]) | Plant response rating, Corn (corn (Zea mays); [19]) | Plant response rating, Soybean (soybean (Glycine max); [15]) | Plant response rating, Soybean (soybean (Glycine max); [18]) | Plant response rating, Soybean (soybean (Glycine max); [19]) | Soybean plant response rating (soybean (Glycine max); [20]) | Soybean plant response rating (soybean (Glycine max); [21]) | Plant response rating, Wheat [12, 15] | Plant response rating, Wheat [12, 16] | Plant response rating, Wheat [12, 17] | Plant response rating, Wheat [12, 18] | Plant response rating, Wheat [12, 19] | Wheat plant response rating [12, 20] | Wheat plant response rating [12, 21]
25: Barnyardgrass plant response rating [1, 14] | Barnyardgrass plant response rating [1, 21] | Crabgrass, Large plant response rating [3, 21]
45: Plant response rating, Barnyardgrass [1, 16]
65: Plant response rating, Crabgrass, Large [3, 18] | Plant response rating, Johnsongrass [5, 17] | Plant response rating, Kochia (kochia (Kochia scoparia); [22])
40: Blackgrass plant response rating [2, 14] | Plant response rating, Crabgrass, Large [3, 15]
100: Plant response rating, Foxtail, Giant [4, 18] | Plant response rating, Foxtail, Giant [4, 19] | Foxtail, Giant plant response rating [4, 20] | Lambsquarters plant response rating [6, 20] | Plant response rating, Morningglory [7, 15] | Plant response rating, Pigweed [8, 17] | Plant response rating, Pigweed [8, 18] | Plant response rating, Pigweed [8, 19] | Pigweed plant response rating [8, 20] | Plant response rating, Ragweed [9, 18] | Plant response rating, Waterhemp [11, 19] | Waterhemp plant response rating [11, 20]
80: Plant response rating, Blackgrass [2, 18] | Plant response rating, Blackgrass [2, 19] | Blackgrass plant response rating [2, 21] | Plant response rating, Lambsquarters [6, 17] | Plant response rating, Waterhemp [11, 16] | Plant response rating, Kochia (kochia (Kochia scoparia); [23])
50: Plant response rating, Barnyardgrass [1, 17]
60: Plant response rating, Johnsongrass [5, 19] | Plant response rating, Waterhemp [11, 15] | Plant response rating, Waterhemp [11, 17] | Kochia plant response rating (kochia (Kochia scoparia); [21])
70: Plant response rating, Barnyardgrass [1, 18] | Plant response rating, Blackgrass [2, 17] | Plant response rating, Crabgrass, Large [3, 19] | Johnsongrass plant response rating [5, 20]
75: Plant response rating, Crabgrass, Large [3, 17] | Plant response rating, Johnsongrass [5, 18]
98: Plant response rating, Lambsquarters [6, 16] | Plant response rating, Morningglory [7, 16] | Morningglory plant response rating [7, 20]
5: Corn plant response rating (corn (Zea mays); [14]) | Corn plant response rating (corn (Zea mays); [21]) | Plant response rating, Johnsongrass [5, 15] | Johnsongrass plant response rating [5, 21]
85: Plant response rating, Barnyardgrass [1, 19] | Crabgrass, Large plant response rating [3, 20] | Plant response rating, Foxtail, Giant [4, 15] | Plant response rating, Foxtail, Giant [4, 17] | Foxtail, Giant plant response rating [4, 21] | Plant response rating, Lambsquarters [6, 15] | Plant response rating, Lambsquarters [6, 18] | Lambsquarters plant response rating [6, 21] | Plant response rating, Morningglory [7, 17] | Pigweed plant response rating [8, 21] | Plant response rating, Ragweed [9, 16] | Plant response rating, Ragweed [9, 17] | Ragweed plant response rating [9, 21] | Waterhemp plant response rating [11, 21]
